In patent US10316049B2, “Tank-binding kinase inhibitor compounds” (Gilead Sciences, Inc., priority 2015, dated 2019) one finds IC50 data, which are given here for 19 compounds.

Test [1] deals with T1, TBK1 (Homo sapiens, UniProt Q9UHD2).
T1 construct: TBK1 and IKKε were expressed and purified as full length recombinant proteins; made in house
T1 sequence (Q9UHD2 1-729): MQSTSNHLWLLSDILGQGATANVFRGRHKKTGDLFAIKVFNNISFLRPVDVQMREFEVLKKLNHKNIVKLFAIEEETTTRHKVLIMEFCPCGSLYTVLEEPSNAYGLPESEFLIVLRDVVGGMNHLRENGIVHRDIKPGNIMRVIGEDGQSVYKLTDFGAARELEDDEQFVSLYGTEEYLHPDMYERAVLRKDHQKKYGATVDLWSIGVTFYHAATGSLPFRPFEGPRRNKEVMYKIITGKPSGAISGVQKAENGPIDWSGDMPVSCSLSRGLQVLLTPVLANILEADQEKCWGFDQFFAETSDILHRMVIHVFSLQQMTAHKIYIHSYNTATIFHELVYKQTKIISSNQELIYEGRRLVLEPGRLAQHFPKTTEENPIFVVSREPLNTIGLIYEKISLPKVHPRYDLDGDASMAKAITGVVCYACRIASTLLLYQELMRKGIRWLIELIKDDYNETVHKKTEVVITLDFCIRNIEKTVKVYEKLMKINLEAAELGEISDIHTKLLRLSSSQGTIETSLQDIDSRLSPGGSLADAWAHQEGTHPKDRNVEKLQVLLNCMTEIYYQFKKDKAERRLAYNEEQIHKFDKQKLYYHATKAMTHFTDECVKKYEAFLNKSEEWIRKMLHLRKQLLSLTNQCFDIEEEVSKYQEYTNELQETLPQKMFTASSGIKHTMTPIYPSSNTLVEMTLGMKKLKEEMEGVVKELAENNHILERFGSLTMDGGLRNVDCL
The test is described as follows: TR-FRET enzymatic activity assay, TBK1. Also: full length recombinant TBK1 at 2.5 nM. In kind it is biochemical. Summed up:
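TR-FRET detected phosphorylation of a biotinylated serine/threonine peptide using 125 nM streptavidin XL665 plus europium-labelled anti-phospho antibody. Reactions with full-length recombinant kinase ran 240 min at 25 °C before EDTA quench. Values are geometric-mean IC50s (n ≥ 4) from four-parameter dose-response fits against staurosporine and DMSO controls.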

Test [2] deals with T2, IKKε (Homo sapiens, UniProt Q14164).
T2 construct: TBK1 and IKKε were expressed and purified as full length recombinant proteins; made in house
T2 sequence (Q14164 1-716): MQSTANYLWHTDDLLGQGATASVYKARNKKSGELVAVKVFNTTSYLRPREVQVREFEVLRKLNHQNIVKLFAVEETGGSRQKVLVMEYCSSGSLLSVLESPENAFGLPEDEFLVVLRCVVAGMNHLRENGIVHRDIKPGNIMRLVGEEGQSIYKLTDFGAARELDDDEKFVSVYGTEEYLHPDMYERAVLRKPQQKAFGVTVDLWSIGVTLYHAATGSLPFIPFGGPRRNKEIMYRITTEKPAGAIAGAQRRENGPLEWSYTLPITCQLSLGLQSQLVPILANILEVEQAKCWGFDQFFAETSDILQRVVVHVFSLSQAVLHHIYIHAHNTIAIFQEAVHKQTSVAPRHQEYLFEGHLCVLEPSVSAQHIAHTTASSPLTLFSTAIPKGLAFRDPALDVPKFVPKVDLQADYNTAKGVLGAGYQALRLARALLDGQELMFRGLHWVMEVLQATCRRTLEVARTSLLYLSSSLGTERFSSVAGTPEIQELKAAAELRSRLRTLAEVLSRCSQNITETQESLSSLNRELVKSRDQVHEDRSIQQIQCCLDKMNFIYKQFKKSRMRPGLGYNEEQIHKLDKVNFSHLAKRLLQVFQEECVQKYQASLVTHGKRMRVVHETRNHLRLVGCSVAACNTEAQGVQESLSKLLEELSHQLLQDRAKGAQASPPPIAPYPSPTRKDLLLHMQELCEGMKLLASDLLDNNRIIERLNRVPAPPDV
Nature of the test: TR-FRET enzymatic activity assay, IKKε. Also: full length recombinant IKKε at 0.3 nM. In kind it is biochemical. The conditions noted are these: read-out: IKKϵ IC50. The method in brief:
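IC50 values are geometric means of at least four determinations, fitted to a four-parameter curve after normalising to 1 μM staurosporine and DMSO. Signal: Eu-cryptate anti-phospho antibody plus 125 nM streptavidin-XL665 on a biotinylated peptide. Full-length recombinant enzyme reacted 240 min, 25 °C, then EDTA-quenched.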
(In general: In TR-FRET formats the signal depends on donor and acceptor labels being close together.)

pIC50: −log10 of the molar value. Where only a bound is given, the exact number is not on record here.

By pIC50 is commonly meant −log10 of the IC50, conventionally taken in molar units. Take `N#Cc1cc(-c2cc(NC(=O)C3CC3)ncn2)ccc1O[C@H]1CCN(C(=O)c2nnc[nH]2)CC1(F)F` [Example 32, (S)—N-(6-(3-cyano-4-((3,3-difluoro-1-(4H-1,2,4-triazole-3-carbonyl)piperidin-4-yl)oxy)phenyl)pyrimidin-4-yl)cyclopropanecarboxamide]: the pIC50 in test [1] is 8.25; in test [2] it was 8.15.

In the case of `N#Cc1cc(-c2ccnc(NC(=O)[C@@H]3C[C@H]3c3cccnc3)c2)ccc1O[C@H]1CCN(C(=O)[C@@H](O)CO)CC1(F)F` [Example 139, (1R,2R)—N-(4-(3-cyano-4-(((S)-1-((S)-2,3-dihydroxypropanoyl)-3,3-difluoropiperidin-4-yl)oxy)phenyl)pyridin-2-yl)-2-(pyridin-3-yl)cyclopropane-1-carboxamide], the results for the pIC50 in test [1] and in test [2] were 7.80 and 7.79, respectively.

On to `CN(C)C(=O)[C@@H]1C[C@@H]1C(=O)Nc1cc(-c2ccc(O[C@H]3CCN(C(=O)CO)C[C@H]3F)c(C#N)c2)ccn1` [Example 79, (1,2-cis)-N^1-(4-(3-cyano-4-(((3R,4S)-3-fluoro-1-(2-hydroxyacetyl)piperidin-4-yl)oxy)phenyl)pyridin-2-yl)-N^2,N^2-dimethylcyclopropane-1,2-dicarboxamide], for which the negative logarithm of the IC50 (pIC50) in test [1] and in test [2] was under 6.00 each time.

Regarding `N#Cc1cc(-c2ccnc(NC(=O)[C@H]3C[C@@H]3c3cccnc3)c2)ccc1O[C@H]1CCN(C(=O)[C@@H](O)CO)CC1(F)F` [Example 140, (1S, 2S)—N-(4-(3-cyano-4-(((S)-1-((S)-2,3-dihydroxypropanoyl)-3,3-difluoropiperidin-4-yl)oxy)phenyl)pyridin-2-yl)-2-(pyridin-3-yl)cyclopropane-1-carboxamide], the pIC50 in test [1] was 8.34; in test [2] it was 8.23.

Regarding `Cn1cc([C@@H]2C[C@H]2C(=O)Nc2cc(-c3ccc(O[C@H]4CCN(C(=O)[C@@H](O)CO)C[C@H]4F)c(C#N)c3)ncn2)cn1` [Example 146, (1,2-Trans)-N-(6-(3-cyano-4-(((3R,4S)-1-((S)-2,3-dihydroxypropanoyl)-3-fluoropiperidin-4-yl)oxy)phenyl)pyrimidin-4-yl)-2-(1-methyl-1H-pyrazol-4-yl)cyclopropane-1-carboxamide], the pIC50 in test [1] was 7.79; in test [2], 7.51.

Turning to `N#Cc1cc(-c2ccnc(NC(=O)C3CC34CC4)c2)ccc1OC1CCOCC1` (centres unmarked) [Example 48, N-(4-(3-cyano-4-((tetrahydro-2H-pyran-4-yl)oxy)phenyl)pyridin-2-yl)spiro[2.2]pentane-1-carboxamide], the pIC50 was 6.57 in test [1] and 6.29 in test [2].

`N#Cc1cc(-c2cc(NC(=O)C3CC3)ncn2)ccc1O` [Example 109, N-(6-(3-cyano-4-hydroxyphenyl)pyrimidin-4-yl)cyclopropanecarboxamide]: the figures for the negative logarithm of the IC50 (pIC50) in test [1] and in test [2] were 6.08 and under 6.00, respectively.

Turning to `N#Cc1cc(-c2ccnc(NC(=O)[C@@H]3C[C@H]3c3ccccc3)c2)ccc1OC1CCOCC1` [Example 87, (1R,2R)—N-(4-(3-cyano-4-((tetrahydro-2H-pyran-4-yl)oxy)phenyl)pyridin-2-yl)-2-phenylcyclopropane-1-carboxamide], the pIC50 was 6.37 in test [1] and 6.11 in test [2].

Consider `N#Cc1cc(-c2ccnc(NC(=O)[C@@H]3C[C@@H]3c3ccccc3)c2)ccc1O[C@H]1CCN(C(=O)CO)C[C@H]1F` (stereo in doubt) [Example 71, (1,2-cis)-N-(4-(3-Cyano-4-(((3R,4S)-3-fluoro-1-(2-hydroxyacetyl)piperidin-4-yl)oxy)phenyl)pyridin-2-yl)-2-phenylcyclopropane-1-carboxamide], for which the pIC50 is 7.29 in test [1] and 6.93 in test [2].

`N#Cc1cc(-c2ccnc(NC(=O)C3CC3)c2)ccc1N1CC[C@H](O)C1` [Example 16, (S)—N-(4-(3-cyano-4-(3-hydroxypyrrolidin-1-yl)phenyl)pyridin-2-yl)cyclopropanecarboxamide]: the pIC50 was 7.28 in test [1] and 6.45 in test [2].

Turning to `N#Cc1cc(-c2ccnc(NC(=O)[C@@H]3C[C@H]3C3OCCO3)c2)ccc1OC1CCOCC1` (relative stereo) [Example 44, (1,2-trans)-N-(4-(3-cyano-4-((tetrahydro-2H-pyran-4-yl)oxy)phenyl)pyridin-2-yl)-2-(1,3-dioxolan-2-yl)cyclopropane-1-carboxamide], the pIC50 was 7.48 in test [1] and 6.72 in test [2].

For the compound `N#Cc1cc(-c2cc(NC(=O)C3CC3)ncn2)ccc1O[C@H]1CCN(C=O)C[C@H]1F` [Example 29, N-(6-(3-cyano-4-(((3R,4S)-3-fluoro-1-formylpiperidin-4-yl)oxy)phenyl)pyrimidin-4-yl)cyclopropanecarboxamide], the negative logarithm of the IC50 (pIC50) in test [1] is 7.33; in test [2], 6.89.

`COC(=O)[C@@H]1C[C@H]1C(=O)Nc1cc(-c2ccc(O[C@H]3CCN(C(=O)CO)C[C@H]3F)c(C#N)c2)ccn1` (relative stereo) [Example 83, Methyl (1,2-trans)-2-((4-(3-cyano-4-(((3R,4S)-3-fluoro-1-(2-hydroxyacetyl)piperidin-4-yl)oxy)phenyl)pyridin-2-yl)carbamoyl)cyclopropane-1-carboxylate]: the pIC50 in test [1] was 7.32; in test [2] it was 7.27.

Regarding `C[C@H]1C[C@@H](Oc2ccc(-c3cc(NC(=O)C4CC4)ncn3)cc2C#N)CCN1C(=O)CO` [Example 112, N-(6-(3-cyano-4-(((2S,4S)-1-(2-hydroxyacetyl)-2-methylpiperidin-4-yl)oxy)phenyl)pyrimidin-4-yl)cyclopropanecarboxamide], the results for the pIC50 in test [1] and in test [2] were 6.97 and 6.68, respectively.

Turning to `Cn1cc(C(=O)N2CC[C@H](Oc3ccc(-c4cc(NC(=O)C5CC5)ncn4)cc3C#N)[C@H](F)C2)nn1` [Example 27, N-(6-(3-cyano-4-(((3R,4S)-3-fluoro-1-(1-methyl-1H-1,2,3-triazole-4-carbonyl)piperidin-4-yl)oxy)phenyl)pyrimidin-4-yl)cyclopropanecarboxamide], the negative logarithm of the IC50 (pIC50) in test [1] was 7.74; in test [2] it was 7.53.

As for `CC(=O)OC1(C(=O)Nc2cc(-c3ccc(OC4CCOCC4)c(C#N)c3)ccn2)CC1` [Example 37, 1-((4-(3-cyano-4-((tetrahydro-2H-pyran-4-yl)oxy)phenyl)pyridin-2-yl)carbamoyl)cyclopropyl acetate], the negative logarithm of the IC50 (pIC50) in test [1] and in test [2] was under 6.00 in each case.

In the case of `N#Cc1cc(-c2ccnc(NC(=O)C3CC3)c2)ccc1N1CCCC1` [Example 5, N-(4-(3-cyano-4-(pyrrolidin-1-yl)phenyl)pyridin-2-yl)cyclopropanecarboxamide], the values for the pIC50 in test [1] and in test [2] were 7.86 and 7.17, respectively.

On to `C[C@@H]1CCCN1c1ccc(-c2ccnc(NC(=O)C3CC3)c2)cc1C#N` [Example 96, (R)—N-(4-(3-cyano-4-(2-methylpyrrolidin-1-yl)phenyl)pyridin-2-yl)cyclopropanecarboxamide], for which the pIC50 in test [1] was 7.48; in test [2], 6.64.

`N#Cc1cc(-c2ccnc(NC(=O)C3CC3)c2)ccc1N1CCC[C@H]1CO` [Example 93, (S)—N-(4-(3-cyano-4-(2-(hydroxymethyl)pyrrolidin-1-yl)phenyl)pyridin-2-yl)cyclopropanecarboxamide]: the negative logarithm of the IC50 (pIC50) is 7.15 in test [1] and 6.29 in test [2].
